Data taken from patent US12065654B2, “Plants having increased tolerance to herbicides” (BASF SE, priority 2014, dated 2024).

Key:
Format in all cases: in vivo, Glycine max
[1] = tested on: untransformed control soybean plants (Jake); experiment: Herbicide field trial; conditions: 7 DAT with 50 g/ha, post-emergence V2-V3, 1% v/v MSO; preliminary assessment, FIG. 7
Method: (§1) Transgenic plants expressing heterologous HPPD or HST enzymes are tested for tolerance against HPPD-inhibiting herbicides in field experiments.
(§2) A study can be conducted at a field trial location to evaluate the effect of HPPD herbicides on the phenotypic and phenologic characteristics of a soybean variety containing different transgenes.
(§3) The trial is designed as a randomized complete block with a split-plot treatment design. The trial contains mainplots defined by ‘herbicide treatment’ (combination of herbicide and application rate). The herbicide treatments are applied post-emergence at the V2-V3 plant growth stage. […]
(§4) Each plot consists of a single row 1.2 m long and adjacent plots are spaced 0.76 m apart. […] The zygosity of each plant of transgenic event is determined prior to the application of the herbicide treatment.
(§5) The effect of the HPPD herbicide treatments on phenotypic and phenologic characteristics of plants representing each transgenic event and control variety, including tolerance to each herbicide treatment, is assessed during different vegetative and reproductive stages of plant growth.
(§6) An analysis of variance is conducted on data collected from each subplot and a Student's T test or Tukey's test is calculated where appropriate to compare means. […]

[2] = tested on: soybean plants expressing mutated Arabidopsis HPPD; experiment: Herbicide field trial; conditions: 7 DAT with 50 g/ha, post-emergence V2-V3, 1% v/v MSO; preliminary assessment, FIG. 7
Method: as §1, §2, §3, §4, §5, §6

[3] = tested on: transgenic soybean plants AtHPPD I393L L385V, event SDS-9908; experiment: Greenhouse testing of soybean plants; conditions: soybean AtHPPD I393L L385V SDS-9908, 14 days, average of 8 T1 individuals
Method: (§7) Transgenic plants expressing heterologous HPPD or HST enzymes are tested for tolerance against HPPD-inhibiting, preferably pyrazolone, isoxazole, or triketone derivative herbicides in greenhouse experiments.
(§8) For post emergence treatment, the test plants are first grown to a height of 3 to 15 cm, depending on the plant habit, and only then treated with the herbicides. For this purpose, the test plants are either sown directly and grown in the same containers, or they are first grown separately and transplanted into the test containers a few days prior to treatment.
(§9) For testing of T0 plants, cuttings can be used. In the case of soybean plants, an optimal shoot for cutting is about 7.5 to 10 cm tall, with at least two nodes present. Each cutting is taken from the original transformant (mother plant) and dipped into rooting hormone powder (indole-3-butyric acid, IBA). The cutting is then placed in oasis wedges inside a bio-dome. Wild type cuttings are also taken simultaneously to serve as controls. The cuttings are kept in the bio-dome for 5-7 days and then transplanted to pots and then acclimated in the growth chamber for two more days. Subsequently, the cuttings are transferred to the greenhouse, acclimated for approximately 4 days, and then subjected to spray tests as indicated.
(§10) Depending on the species, the plants are kept at 10-25° C. or 20-35° C. The test period extends over 3 weeks. During this time, the plants are tended and their response to the individual treatments is evaluated. Herbicide injury evaluations are taken at 2 and 3 weeks after treatment. Plant injury is rated on a scale of 0 to 9, 0 being no injury and 9 being complete death. Tolerance to HPPD-inhibiting, preferably pyrazolone, isoxazole, or triketone derivative herbicides can also be assessed in Arabidopsis. In this case transgenic Arabidopsis thaliana plants are assayed for improved tolerance to HPPD-inhibiting, preferably pyrazolone, isoxazole, or triketone derivative herbicides in 48-well plates. Seeds are surface sterilized by stirring for 5 min in ethanol+water (70+30 by volume), rinsing one time with ethanol+water (70+30 by volume) and two times with a sterile, deionized water. The seeds are resuspended in 0.1% agar dissolved in water (w/v). Four to five seeds per well are plated on solid nutrient medium consisting of half-strength Murashige Skoog nutrient solution, pH 5.8 (Murashige and Skoog (1962) Physiologia Plantarum 15: 473-497). Compounds are dissolved in dimethylsulfoxid (DMSO) and added to the medium prior solidification (final DMSO concentration 0.1%). Multi well plates are incubated in a growth chamber at 22° C., 75% relative humidity and 110 μmol Phot*m−2*s−1 with 14:10 h light:dark photoperiod. Seven to ten days after seeding growth inhibition is evaluated by comparison to wild type plants. Tolerance factor is calculated by dividing the plant growth IC50 value of transgenic plants containing a HPPD and/or HST sequence by that of wildtype plants.
(§11) Transgenic soy plants were sprayed with a range of doses from 6.25-100 g/ha with an HPPD-inhibiting herbicide and injury evaluations were taken two weeks after treatment. […] Compared to the untransformed wild-type, plants comprising polynucleotides encoding for Arabidopsis HPPD wild-type or mutated versions thereof were less susceptible to Inhibitor 1.

[4] = tested on: transgenic soybean plants AtHPPD M335Y, event SDS-9866; experiment: Greenhouse testing of soybean plants; conditions: soybean AtHPPD M335Y SDS-9866, 14 days, average of 8 T1 individuals
Method: as §7, §8, §9, §10, §11

[5] = tested on: transgenic soybean plants AtHPPD P336A E363Q I393L L385V, event SDS-10085; experiment: Greenhouse testing of soybean plants; conditions: soybean AtHPPD P336A E363Q I393L L385V SDS-10085, 14 days, average of 8 T1 individuals
Method: as §7, §8, §9, §10, §11

[6] = tested on: transgenic soybean plants AtHPPD Q293S, event SDS-9928; experiment: Greenhouse testing of soybean plants; conditions: soybean AtHPPD Q293S SDS-9928, 14 days, average of 8 T1 individuals
Method: as §7, §8, §9, §10, §11

[7] = tested on: transgenic soybean plants AtHPPD, event SDS-10248; experiment: Greenhouse testing of soybean plants; conditions: for Injury evaluation (bleaching phenotype, scale of 1-100): soybean AtHPPD SDS-10248, 14 days, average of 8 T1 individuals
Method: as §7, §8, §9, §10, §11

Cc1c(C(=O)c2cnn(C)c2O)ccc(S(C)(=O)=O)c1C1=NOCC1 [Inhibitor 1, [3-(4,5-dihydroisoxazol-3-yl)-2-methyl-4-methylsulfonyl-phenyl]-(5-hydroxy-1-methyl-pyrazol-4-yl)methanone]
field injury (in words) [1]: severe herbicide damage | field injury (in words) [2]: low-moderate injury | Injury evaluation (bleaching phenotype, scale of 1-100) ([3]; 6.25 g/ha): 0% | Injury evaluation (bleaching phenotype, scale of 1-100) ([3]; 25 g/ha): 8% | Injury evaluation (bleaching phenotype, scale of 1-100) ([3]; 100 g/ha): 54% | Injury evaluation (bleaching phenotype, scale of 1-100) ([4]; 6.25 g/ha): 0% | Injury evaluation (bleaching phenotype, scale of 1-100) ([4]; 25 g/ha): 11% | Injury evaluation (bleaching phenotype, scale of 1-100) ([4]; 100 g/ha): 31% | Injury evaluation (bleaching phenotype, scale of 1-100) ([5]; 6.25 g/ha): 16% | Injury evaluation (bleaching phenotype, scale of 1-100) ([5]; 25 g/ha): 35% | Injury evaluation (bleaching phenotype, scale of 1-100) ([5]; 100 g/ha): 78% | Injury evaluation (bleaching phenotype, scale of 1-100) ([6]; 6.25 g/ha): 2% | Injury evaluation (bleaching phenotype, scale of 1-100) ([6]; 25 g/ha): 40% | Injury evaluation (bleaching phenotype, scale of 1-100) ([6]; 100 g/ha): 79% | fold tolerance compared to untransformed wild-type ([7]; soy plants with SEQ ID NO:53, 100 g/ha): 2 fold | Injury evaluation (bleaching phenotype, scale of 1-100) ([7]; 6.25 g/ha): 2% | Injury evaluation (bleaching phenotype, scale of 1-100) ([7]; 25 g/ha): 3% | Injury evaluation (bleaching phenotype, scale of 1-100) ([7]; 100 g/ha): 44%
